pIC50: −log10 of the molar value. Where a name gives a salt, the structure may show the parent alone.

GST tagged IRAK4, sequence (Q9NWZ3 whole entry): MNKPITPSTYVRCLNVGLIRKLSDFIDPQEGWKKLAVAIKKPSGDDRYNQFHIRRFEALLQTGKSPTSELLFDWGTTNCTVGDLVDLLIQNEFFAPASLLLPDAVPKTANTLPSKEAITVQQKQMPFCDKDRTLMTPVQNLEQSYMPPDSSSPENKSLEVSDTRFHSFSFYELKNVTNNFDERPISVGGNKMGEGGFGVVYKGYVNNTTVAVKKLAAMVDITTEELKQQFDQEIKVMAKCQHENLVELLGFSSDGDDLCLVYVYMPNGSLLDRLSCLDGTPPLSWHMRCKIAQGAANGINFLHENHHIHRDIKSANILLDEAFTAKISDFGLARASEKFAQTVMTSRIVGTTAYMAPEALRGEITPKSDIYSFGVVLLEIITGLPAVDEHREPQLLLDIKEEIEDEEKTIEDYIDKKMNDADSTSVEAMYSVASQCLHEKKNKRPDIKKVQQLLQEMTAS

This test concerns the target GST tagged IRAK4 (Homo sapiens (Human), UniProt Q9NWZ3). The test can be described thus: IRAK4 Kinase Assay (IMAP fluorescence polarization). It counts as biochemical. The conditions noted are these: 0.5 nM GST tagged IRAK4, 100 μM ATP, 30 minutes at 25° C. The protocol: The kinase activity of IRAK4 is determined by its ability to catalyze the phosphorylation of a fluorescent polypeptide substrate. The extent of phosphorylation is measured using the IMAP technology (Molecular Devices) where the phosphorylated fluorescent substrate binds to the large M(III)-based nanoparticles which reduces the rotational speed of the substrate and thus increases its fluorescent polarization (FP).
20 μL reaction mixture contains 10 mM TriHCl, pH 7.2, 0.5 nM GST tagged IRAK4 (SignalChem), 100 nM fluorescent peptide substrate (RP7030, Molecular Devices), 100 μM ATP, 1 mM DDT, 1 mM MgCl2, and 0.01% Tween 20. The reaction is initiated by the addition of ATP. After incubation for 30 minutes at 25° C., 60 μL of Progressive IMAP Reagent (Molecular Devices) is added to stop the reaction. Change in RP7030's FP is determined by a FP reader (Analyst HT, LJL BioSystems).
(In general: Polarisation of emitted light reports the rotation of a fluorescent probe.)
Regarding `Cn1cc(NC(=O)c2ccc3cnc(N[C@@H]4CCCC[C@@H]4N)nn23)c(Cl)n1` [Example 25, 2-{[(1R,2S)-2-aminocyclohexyl]amino}-N-(3-chloro-1-methyl-1H-pyrazol-4-yl)pyrrolo[2,1-f][1,2,4]triazine-7-carboxamide trifluoroacetate], the pIC50 is 9.00.

`O=C(Nc1ccsc1C(F)(F)F)c1ccc2cnc(N3C[C@H]4CC[C@@H]3CN4)nn12` (single isomer, unassigned) [Example 87, 2-[(1S,4S)- or (1R,4R)-2,5-diazabicyclo[2.2.2]oct-2-yl]-N-[2-(trifluoromethyl)thiophen-3-yl]pyrrolo[2,1-f][1,2,4]triazine-7-carboxamide trifluoroacetate] had a pIC50 of 5.84.

The compound `N#Cc1sccc1NC(=O)c1ccc2cnc(N3CCCNCC3)nn12` [Example 43, N-(2-cyanothiophen-3-yl)-2-(1,4-diazepan-1-yl)pyrrolo[2,1-f][1,2,4]triazine-7-carboxamide trifluoroacetate] showed a pIC50 of 5.98.

For the compound `Cn1cc(NC(=O)c2ccc3cnc(N4C[C@H]5CC[C@@H]4CN5)nn23)c(Cl)n1` (single isomer, unassigned) [Example 45, N-(3-chloro-1-methyl-1H-pyrazol-4-yl)-2-[(1S,4S)- or (1R,4R)-2,5-diazabicyclo[2.2.2]oct-2-yl]pyrrolo[2,1-f][1,2,4]triazine-7-carboxamide trifluoroacetate], the pIC50 was 7.10. This pIC50 is 1.12 log units higher than that of the compound before.

In turn, `N[C@H]1CCCC[C@H]1Nc1ncc2ccc(C(=O)Nc3cscc3C(F)F)n2n1` [Example 42, 2-{[(1R,2S)-2-aminocyclohexyl]amino}-N-[4-(difluoromethyl)thiophen-3-yl]pyrrolo[2,1-f][1,2,4]triazine-7-carboxamide trifluoroacetate] showed a pIC50 of 8.40.

Turning to `Cn1cc(NC(=O)c2ccc3cnc(N4CC5CCC(C4)N5)nn23)c(C#N)n1` [Example 110, N-(3-cyano-1-methyl-1H-pyrazol-4-yl)-2-(3,8-diazabicyclo[3.2.1]oct-3-yl)pyrrolo[2,1-f][1,2,4]triazine-7-carboxamide trifluoroacetate], the negative logarithm of the IC50 (pIC50) is 6.93.

`N#Cc1cscc1NC(=O)c1ccc2cnc(N[C@@H]3CCCC[C@@H]3N)nn12` [Example 13, 2-{[(1R,2S)-2-aminocyclohexyl]amino}-N-(4-cyanothiophen-3-yl)pyrrolo[2,1-f][1,2,4]triazine-7-carboxamide trifluoroacetate]: the pIC50 was 8.40. This pIC50 lies 1.47 log units higher than the previous one.

In turn, `O=C(Nc1ccccc1Br)c1ccc2cnc(N3CCCNCC3)nn12` [Example 33, N-(2-bromophenyl)-2-(1,4-diazepan-1-yl)pyrrolo[2,1-f][1,2,4]triazine-7-carboxamide trifluoroacetate] showed a pIC50 of 5.27.

The compound `Cn1cc(NC(=O)c2ccc3cnc(N[C@@H]4CCCC[C@@H]4N)nn23)c(C#N)n1` [Example 35, 2-{[(1R,2S)-2-aminocyclohexyl]amino}-N-(3-cyano-1-methyl-1H-pyrazol-4-yl)pyrrolo[2,1-f][1,2,4]triazine-7-carboxamide trifluoroacetate] had a pIC50 of 9.00.

Regarding `Cn1cc(NC(=O)c2ccc3cnc(N[C@@H]4CCCC[C@@H]4N)nn23)cn1` [Example 169, 2-{[(1R,2S)-2-aminocyclohexyl]amino}-N-(1-methyl-1H-pyrazol-4-yl)pyrrolo[2,1-f][1,2,4]triazine-7-carboxamide trifluoroacetate], the pIC50 is 7.46.

`Cn1cc(NC(=O)c2ccc3cnc(N[C@H]4CCCCNC4)nn23)c(C(F)(F)F)n1` (single isomer, unassigned) [Example 69, 2-[(3S)- or (3R)-azepan-3-ylamino]-N-[1-methyl-3-(trifluoromethyl)-1H-pyrazol-4-yl]pyrrolo[2,1-f][1,2,4]triazine-7-carboxamide trifluoroacetate] had a pIC50 of 8.30.

The compound `Cn1cc(NC(=O)c2ccc3cnc(N4C[C@@H]5CC[C@H]4CN5)nn23)c(Cl)n1` (single isomer, unassigned) [Example 44, N-(3-chloro-1-methyl-1H-pyrazol-4-yl)-2-[(1S,4S)- or (1R,4R)-2,5-diazabicyclo[2.2.2]oct-2-yl]pyrrolo[2,1-f][1,2,4]triazine-7-carboxamide trifluoroacetate] had a pIC50 of 6.90.

In the case of `Cn1cc(NC(=O)c2ccc3cnc(N[C@H]4CNC[C@@H](F)C4)nn23)c(C(F)(F)F)n1` [Example 160, 2-{[(3R,5S)-5-fluoropiperidin-3-yl]amino}-N-[1-methyl-3-(trifluoromethyl)-1H-pyrazol-4-yl]pyrrolo[2,1-f][1,2,4]triazine-7-carboxamide], the pIC50 was 8.05.

For `O=C(Nc1ccccc1Cl)c1ccc2cnc(N3C[C@@H]4CC[C@H]3CN4)nn12` (single isomer, unassigned) [Example 65, N-(2-chlorophenyl)-2-[(1S,4S)- or (1R,4R)-2,5-diazabicyclo[2.2.2]oct-2-yl]pyrrolo[2,1-f][1,2,4]triazine-7-carboxamide trifluoroacetate], the negative logarithm of the IC50 (pIC50) was 5.69.

In turn, `O=C(Nc1cscc1C(F)F)c1ccc2cnc(N3C[C@@H]4CC[C@H]3CN4)nn12` (single isomer, unassigned) [Example 80, 2-[(1S,4S)- or (1R,4R)-2,5-diazabicyclo[2.2.2]oct-2-yl]-N-[4-(difluoromethyl)thiophen-3-yl]pyrrolo[2,1-f][1,2,4]triazine-7-carboxamide trifluoroacetate] gave a pIC50 of 6.76.

`Cn1cc(NC(=O)c2ccc3cnc(N4C[C@H]5CNC[C@@H]4C5)nn23)c(C#N)n1` (single isomer, unassigned) [Example 134, N-(3-cyano-1-methyl-1H-pyrazol-4-yl)-2-[(1R,5S)- or (1S,5R)-3,6-diazabicyclo[3.2.1]oct-6-yl]pyrrolo[2,1-f][1,2,4]triazine-7-carboxamide] showed a pIC50 of 6.76.

Take `N[C@H]1CCCC[C@H]1Nc1ncc2ccc(C(=O)Nc3ccsc3Br)n2n1` [Example 38, 2-{[(1R,2S)-2-aminocyclohexyl]amino}-N-(2-bromothiophen-3-yl)pyrrolo[2,1-f][1,2,4]triazine-7-carboxamide trifluoroacetate]: the pIC50 was 8.15.

In turn, `Cn1cc(NC(=O)c2ccc3cnc(N[C@H]4CC(F)(F)CC[C@H]4N)nn23)c(C(F)F)n1` (single isomer, unassigned) [Example 130, 2-{[(1S,2R)- or (1R,2S)-2-amino-5,5-difluorocyclohexyl]amino}-N-[3-(difluoromethyl)-1-methyl-1H-pyrazol-4-yl]pyrrolo[2,1-f][1,2,4]triazine-7-carboxamide] had a negative logarithm of the IC50 (pIC50) of 6.18.

`Cn1cc(NC(=O)c2ccc3cnc(N4C5CCC4CNC5)nn23)c(C(F)F)n1` [Example 121, 2-(3,8-diazabicyclo[3.2.1]oct-8-yl)-N-[3-(difluoromethyl)-1-methyl-1H-pyrazol-4-yl]pyrrolo[2,1-f][1,2,4]triazine-7-carboxamide trifluoroacetate] showed a pIC50 of 9.30.

`O=C(Nc1ccccc1C(F)F)c1ccc2cnc(N3C[C@H]4CC[C@@H]3CN4)nn12` (single isomer, unassigned) [Example 62, 2-[(1S,4S)- or (1R,4R)-2,5-diazabicyclo[2.2.2]oct-2-yl]-N-[2-(difluoromethyl)phenyl]-pyrrolo[2,1-f][1,2,4]triazine-7-carboxamide trifluoroacetate] gave a pIC50 of 6.03. Against the preceding compound, the pIC50 is 3.27 log units lower.

In turn, `Cn1cc(NC(=O)c2ccc3cnc(N[C@H]4CNC[C@@H](F)C4)nn23)c(C(F)F)n1` [Example 159, N-[3-(difluoromethyl)-1-methyl-1H-pyrazol-4-yl]-2-{[(3R,5S)-5-fluoropiperidin-3-yl]amino}pyrrolo[2,1-f][1,2,4]triazine-7-carboxamide] had a pIC50 of 9.30.

In the case of `Cn1cc(NC(=O)c2ccc3cnc(N[C@H]4CCC(F)(F)C[C@H]4N)nn23)c(C(F)(F)F)n1` (single isomer, unassigned) [Example 128, 2-{[(1S,2R)- or (1R,2S)-2-amino-4,4-difluorocyclohexyl]amino}-N-[1-methyl-3-(trifluoromethyl)-1H-pyrazol-4-yl]pyrrolo[2,1-f][1,2,4]triazine-7-carboxamide trifluoroacetate], the negative logarithm of the IC50 (pIC50) was 7.34. Compared with the last compound, the pIC50 is 1.96 log units lower.

On to `Cn1cc(NC(=O)c2ccc3cnc(N[C@H]4CNC[C@H](F)C4)nn23)c(C(F)(F)F)n1` [Example 162, 2-{[(3R,5R)-5-fluoropiperidin-3-yl]amino}-N-[1-methyl-3-(trifluoromethyl)-1H-pyrazol-4-yl]pyrrolo[2,1-f][1,2,4]triazine-7-carboxamide trifluoroacetate], for which the pIC50 is 7.74.

As for `Cn1cc(NC(=O)c2ccc3cnc(N4CCCNCC4)nn23)c(C(F)(F)F)n1` [Example 6, 2-(1,4-diazepan-1-yl)-N-[1-methyl-3-(trifluoromethyl)-1H-pyrazol-4-yl]pyrrolo[2,1-f][1,2,4]triazine-7-carboxamide trifluoroacetate], the negative-log IC50 (pIC50) was 7.03.

For `N#Cc1ccccc1NC(=O)c1ccc2cnc(N[C@@H]3CCCC[C@@H]3N)nn12` [Example 50, 2-{[(1R,2S)-2-aminocyclohexyl]amino}-N-(2-cyanophenyl)pyrrolo[2,1-f][1,2,4]triazine-7-carboxamide trifluoroacetate], the pIC50 was 7.96.

`Cn1cc(NC(=O)c2ccc3cnc(N4C[C@@H](N)C[C@@H](F)C4)nn23)c(C(F)F)n1` [Example 151, 2-[(3S,5R)-3-amino-5-fluoropiperidin-1-yl]-N-[3-(difluoromethyl)-1-methyl-1H-pyrazol-4-yl]pyrrolo[2,1-f][1,2,4]triazine-7-carboxamide formate] had a pIC50 of 9.10.

By pIC50 is commonly meant the negative decadic logarithm of the IC50, by convention in mol/L. A low value points to a large IC50.

(Values after patent US10329295B2, “Pyrrolotriazine inhibitors of IRAK4 activity” (MERCK SHARP & DOHME CORP., priority 2015, dated 2019).)
